According to ChEMBL document CHEMBL5303573, “Mapping human microbiome drug metabolism by gut bacteria and their genes” (Nature, 2019):

Tests used:
[1] = parabacteroides distasonis, 12 h, 2 µM
Description: The drug is tested on Parabacteroides distasonis strain: ATCC8503 for biotransformation. The drug concentrations were measured before and after a 12-h incubation by liquid-chromatography-coupled mass spectrometry (LC–MS)

[2] = The drug is tested on Dorea formicigenerans strain: ATCC27755 for biotransformation. The drug concentrations were measured before and after a 12-h incubation by liquid-chromatography-coupled mass spectrometry (LC–MS); settings: 2 µM
[3] = bacteroides thetaiotaomicron, 12 h, 2 µM
Description: The drug is tested on Bacteroides thetaiotaomicron strain: 3731 for biotransformation. The drug concentrations were measured before and after a 12-h incubation by liquid-chromatography-coupled mass spectrometry (LC–MS)

[4] = segatella copri, 12 h, 2 µM
Description: The drug is tested on Prevotella copri strain: DSM18205 for biotransformation. The drug concentrations were measured before and after a 12-h incubation by liquid-chromatography-coupled mass spectrometry (LC–MS)

[5] = The drug is tested on Bacteroides vulgatus strain: ATCC8482 for biotransformation. The drug concentrations were measured before and after a 12-h incubation by liquid-chromatography-coupled mass spectrometry (LC–MS); settings: phocaeicola vulgatus, 2 µM
[6] = The drug is tested on Bacteroides ovatus strain: ATCC8483 for biotransformation. The drug concentrations were measured before and after a 12-h incubation by liquid-chromatography-coupled mass spectrometry (LC–MS); settings: 2 µM
[7] = The drug is tested on Eggerthella lenta strain: ATCC25559 for biotransformation. The drug concentrations were measured before and after a 12-h incubation by liquid-chromatography-coupled mass spectrometry (LC–MS); settings: 2 µM
[8] = The drug is tested on Subdoligranulum variabile strain: DSM15176 for biotransformation. The drug concentrations were measured before and after a 12-h incubation by liquid-chromatography-coupled mass spectrometry (LC–MS); settings: 2 µM
[9] = The drug is tested on Collinsella aerofaciens strain: ATCC25986 for biotransformation. The drug concentrations were measured before and after a 12-h incubation by liquid-chromatography-coupled mass spectrometry (LC–MS); settings: 2 µM
[10] = The drug is tested on Blautia hansenii strain: DSM20583 for biotransformation. The drug concentrations were measured before and after a 12-h incubation by liquid-chromatography-coupled mass spectrometry (LC–MS); settings: 2 µM
[11] = The drug is tested on Bacteroides xylanisolvens strain: DSM18836 for biotransformation. The drug concentrations were measured before and after a 12-h incubation by liquid-chromatography-coupled mass spectrometry (LC–MS); settings: 2 µM
[12] = The drug is tested on Bacteroides uniformis strain: ATCC8492 for biotransformation. The drug concentrations were measured before and after a 12-h incubation by liquid-chromatography-coupled mass spectrometry (LC–MS); settings: 2 µM
[13] = The drug is tested on Clostridium asparagiforme strain: DSM15981 for biotransformation. The drug concentrations were measured before and after a 12-h incubation by liquid-chromatography-coupled mass spectrometry (LC–MS); type: ADME; set-up: dose 2 uM, timepoint 0 vs 12 hours; settings: enterocloster asparagiformis, 2 µM
[14] = The drug is tested on Bacteroides pectinophilus strain: ATCC43243 for biotransformation. The drug concentrations were measured before and after a 12-h incubation by liquid-chromatography-coupled mass spectrometry (LC–MS); settings: 2 µM
[15] = The drug is tested on Providencia rettgeri strain: DSM1131 for biotransformation. The drug concentrations were measured before and after a 12-h incubation by liquid-chromatography-coupled mass spectrometry (LC–MS); type: ADME; set-up: dose 2 uM, timepoint 0 vs 12 hours; settings: 2 µM
[16] = The drug is tested on Bacteroides fragilis strain: HMW610 for biotransformation. The drug concentrations were measured before and after a 12-h incubation by liquid-chromatography-coupled mass spectrometry (LC–MS); settings: 2 µM
[17] = The drug is tested on Blautia luti strain: DSM14534 for biotransformation. The drug concentrations were measured before and after a 12-h incubation by liquid-chromatography-coupled mass spectrometry (LC–MS); type: ADME; set-up: dose 2 uM, timepoint 0 vs 12 hours; settings: 2 µM
[18] = The drug is tested on Bacteroides caccae strain: ATCC43185 for biotransformation. The drug concentrations were measured before and after a 12-h incubation by liquid-chromatography-coupled mass spectrometry (LC–MS); settings: 2 µM
[19] = bacteroides fragilis, 12 h, 2 µM
Description: The drug is tested on Bacteroides fragilis strain: 3397 (T10) for biotransformation. The drug concentrations were measured before and after a 12-h incubation by liquid-chromatography-coupled mass spectrometry (LC–MS)

Row | Bacterial Biotransformation [1] | Bacterial Biotransformation [2] | Bacterial Biotransformation [3] | Bacterial Biotransformation [4] | Bacterial Biotransformation [5] | Bacterial Biotransformation [6] | Bacterial Biotransformation [7] | Bacterial Biotransformation [8] | Bacterial Biotransformation [9] | Bacterial Biotransformation [11] | Bacterial Biotransformation [12] | Bacterial Biotransformation [13] | Bacterial Biotransformation [14] | Bacterial Biotransformation [15] | Bacterial Biotransformation [16] | Compound | Bacterial Biotransformation [10] | Bacterial Biotransformation [17] | Bacterial Biotransformation [18] | Bacterial Biotransformation [19]
1 | Compound metabolized | Compound NOT metabolized | Compound metabolized | Compound NOT metabolized | Compound metabolized | Compound NOT metabolized | Compound metabolized | Compound metabolized | Compound NOT metabolized | Compound metabolized | Compound metabolized | Compound NOT metabolized | Compound NOT metabolized | Compound NOT metabolized | Compound metabolized | CCCCC(=O)O[C@]1(C(=O)CO)[C@@H](C)C[C@H]2[C@@H]3CCC4=CC(=O)C=C[C@]4(C)[C@@]3(F)[C@@H](O)C[C@@]21C [BETAMETHASONE VALERATE] | Compound metabolized |  |  | 
2 | Compound NOT metabolized | Compound NOT metabolized | Compound NOT metabolized | Compound NOT metabolized | Compound NOT metabolized | Compound NOT metabolized | Compound metabolized | Compound NOT metabolized | Compound NOT metabolized | Compound NOT metabolized | Compound NOT metabolized | Compound NOT metabolized | Compound NOT metabolized | Compound NOT metabolized | Compound NOT metabolized | OC(c1cc(C(F)(F)F)nc2c(C(F)(F)F)cccc12)C1CCCCN1 (stereo unspecified) [MEFLOQUINE] |  | Compound NOT metabolized | Compound NOT metabolized | Compound NOT metabolized

Row | Compound | Bacterial Biotransformation [1] | Bacterial Biotransformation [2] | Bacterial Biotransformation [3] | Bacterial Biotransformation [4] | Bacterial Biotransformation [5] | Bacterial Biotransformation [6] | Bacterial Biotransformation [7] | Bacterial Biotransformation [8] | Bacterial Biotransformation [9] | Bacterial Biotransformation [11] | Bacterial Biotransformation [12] | Bacterial Biotransformation [13] | Bacterial Biotransformation [14] | Bacterial Biotransformation [15] | Bacterial Biotransformation [16] | Bacterial Biotransformation [10] | Bacterial Biotransformation [17] | Bacterial Biotransformation [18] | Bacterial Biotransformation [19]
3 | CN(C)C(=O)C(CCN1CCC(O)(c2ccc(Cl)cc2)CC1)(c1ccccc1)c1ccccc1 [LOPERAMIDE] | Compound metabolized | Compound NOT metabolized | Compound NOT metabolized |  | Compound metabolized |  | Compound NOT metabolized | Compound NOT metabolized | Compound NOT metabolized | Compound metabolized | Compound metabolized | Compound NOT metabolized | Compound NOT metabolized | Compound metabolized | Compound metabolized | Compound metabolized | Compound NOT metabolized | Compound NOT metabolized | Compound metabolized
